Laboratory results published in ChEMBL document CHEMBL1201862, “PubChem BioAssay data set” (2004).
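Compound exposure: 48 hours, 5 concentrations, 96-well plates. The concentration for 50% growth inhibition is given as GI50.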 Calls of active or inactive are those of the source. Rule as the data show it: active = GI50 up to about 1.1 µM and inactive = higher.

What was measured:
Assay in all cases: inhibition of tumour cell growth, NCI panel, 48 h
[1] = system: DLD-1
[2] = system: DMS-273
[3] = system: HOP-18
[4] = system: M19-MEL
[5] = system: SNB-78
[6] = system: BT-549
[7] = system: Hs-578T
[8] = system: XF498

Row | SMILES | GI50 [1] | GI50 [6] | GI50 [7] | also measured
1 | COc1cc(C=C2C(=O)OC(C)(C)OC2=O)cc(OC)c1OC | > 100 µM (inactive) | – | – | GI50 [2]: > 100 µM (inactive); GI50 [3]: > 100 µM (inactive); GI50 [4]: > 100 µM (inactive); GI50 [5]: > 100 µM (inactive)
2 | CC1=CC(=O)C2=C(C)CCC3C(C)C(=O)OC3C12 (stereo not given) | – | > 100 µM (inactive) | > 100 µM (inactive) | –
3 | C[C@@](Br)(C(=O)O)[C@H](Br)C(=O)O | – | > 100 µM (inactive) | – | –
4 | CCOC(=O)C(NCc1ccc2c(c1)OCO2)(NC(=O)c1ccccc1)C(F)(F)F (stereo not given) | – | > 100 µM (inactive) | > 100 µM (inactive) | –
5 | COc1cccc(CSCC(=O)O)c1 | – | > 100 µM (inactive) | > 100 µM (inactive) | –
6 | COC(=NC(C)C)NC(C)C | – | – | > 100 µM (inactive) | –
7 | COC(=O)C1=C(C(=O)OC)C(C(=O)OC)C(C(=O)OC)C(C(=O)OC)(C(=O)OC)C(C(=O)OC)=C1C(=O)OC (stereo not given) | 1.81 µM (inactive) | 18.2 µM (inactive) | 34.5 µM (inactive) | GI50 [3]: 17.1 µM (inactive); GI50 [4]: 12.8 µM (inactive); GI50 [5]: 18.4 µM (inactive); GI50 [8]: 12.2 µM (inactive)
8 | NC(=O)C(=CNC(=S)Nc1ccc(Cl)c(Cl)c1)C(N)=O | – | – | 30.3 µM (inactive) | –
9 | CNC(=O)OCC1=C(COC(=O)NC)CN(c2ccccc2)C1 | – | > 100 µM (inactive) | > 100 µM (inactive) | –
10 | Cc1c2oc3c(C)cnc(C(=O)NC4C(=O)NC(C(C)C)C(=O)N5CCCC5C(=O)N(C)CC(=O)N(C)C(C(C)C)C(=O)OC4C)c3nc-2c(C(=O)NC2C(=O)NC(C(C)C)C(=O)N3CCCC3C(=O)N(C)CC(=O)N(C)C(C(C)C)C(=O)OC2C)c(N)c1=O (stereo not given) | – | 7.62 µM (inactive) | 1.88 µM (inactive) | –
11 | O=C1C=C(c2[nH]c3ccccc3c2C2=CC(=O)c3ccccc3C2=O)C(=O)c2ccccc21 | 57.1 µM (inactive) | – | – | GI50 [2]: 39.2 µM (inactive); GI50 [3]: > 100 µM (inactive); GI50 [4]: 17.3 µM (inactive); GI50 [5]: 32.8 µM (inactive)
12 | CN(C)CCC(O)(c1ccccc1)C(O)(CCN(C)C)c1ccccc1 (stereo not given) | > 100 µM (inactive) | – | – | GI50 [4]: > 100 µM (inactive); GI50 [5]: > 100 µM (inactive); GI50 [8]: 38.7 µM (inactive)
13 | CCOC(=O)c1c(C)n(-c2ccc(C)cc2)c(=O)c2ccccc2c(=O)c2c(=O)ccc(=O)c1=2 | – | 23.3 µM (inactive) | 21.3 µM (inactive) | –
14 | O=C(c1ccco1)n1c2ccc(Br)cc2c2nc3ccccc3nc21 | – | 45.4 µM (inactive) | – | –
15 | O=C1CSC(c2c[nH]c3ccccc23)N1c1ccc(Cl)cc1Cl (stereo not given) | – | > 100 µM (inactive) | – | –
16 | COc1cc(/C=C2\C(=O)N(c3cccc(NC(C)=O)c3)C(c3ccccc3)S2(=O)=O)cc(OC)c1OC (stereo not given) | – | 67.3 µM (inactive) | – | –

Row | SMILES | GI50 [1] | GI50 [6] | GI50 [7] | also measured
17 | Nc1cc(CO)cc(Nc2c3ccccc3nc3occc23)c1 | – | 19.4 µM (inactive) | 31 µM (inactive) | –
18 | COC(=O)C(Cl)=C1CC1 | 23.6 µM (inactive) | – | – | GI50 [2]: 31.6 µM (inactive); GI50 [4]: 39.7 µM (inactive); GI50 [5]: 49.1 µM (inactive); GI50 [8]: 29.4 µM (inactive)
19 | Cc1cccc2c1C(=O)[C@](C)([C@]1(C)Nc3cccc(C)c3C1=O)N2 | – | 20.8 µM (inactive) | 21.7 µM (inactive) | –
20 | NCCCOc1ccc([N+](=O)[O-])cc1Cl | > 100 µM (inactive) | – | – | GI50 [2]: > 100 µM (inactive); GI50 [4]: > 100 µM (inactive); GI50 [8]: > 100 µM (inactive)
21 | COc1cc(OCc2nc3ccccc3n3cccc23)cc(OC)c1OC | – | 19.7 µM (inactive) | 52.6 µM (inactive) | –
22 | CCOC(=O)c1c(N)sc2c1C(C(=O)OCC)CCC2 (stereo not given) | – | > 100 µM (inactive) | > 100 µM (inactive) | –
23 | COC(=O)c1ccc(CN2CCc3c([nH]c4ccccc34)C2CO)o1 (stereo not given) | – | > 10 µM (inactive) | – | –
24 | ClC(Cl)=C(Cl)C1(Cl)CC1COCc1ccccc1 (stereo not given) | 38 µM (inactive) | – | – | GI50 [2]: 42.8 µM (inactive); GI50 [4]: 31.4 µM (inactive); GI50 [5]: 4.83 µM (inactive); GI50 [8]: 23.6 µM (inactive)
25 | CCC(=O)CC(=O)CCC(=O)Nc1cc(C)ccc1C | > 100 µM (inactive) | – | – | GI50 [3]: > 100 µM (inactive); GI50 [5]: > 100 µM (inactive); GI50 [8]: > 100 µM (inactive)
26 | O=C(O)C(CO)NC(=O)n1c2ccccc2c2ccccc21 (stereo not given) | > 100 µM (inactive) | – | – | GI50 [2]: > 100 µM (inactive); GI50 [3]: > 100 µM (inactive); GI50 [4]: > 100 µM (inactive); GI50 [8]: > 100 µM (inactive)
27 | CN(C)CCOc1ccc2[nH]c(C(=O)N3CC(CCl)c4c3cc(NC(=O)OCc3ccc([N+](=O)[O-])cc3)c3ccccc43)cc2c1 (stereo not given) | – | 1.85 µM (inactive) | 2.3 µM (inactive) | –
28 | O=C(c1cccs1)N(C(=O)N1CCN(c2ccccc2)CC1)S(=O)(=O)c1ccccc1 | – | 28.2 µM (inactive) | 23.8 µM (inactive) | –
29 | CC1CCc2sc3nc(S)n(C)c(=O)c3c2C1 (stereo not given) | – | 96.8 µM (inactive) | 78.2 µM (inactive) | –
30 | CC(C)(C)OC(=O)NCCC1SC2C=CC1C2 (stereo not given) | – | > 100 µM (inactive) | > 100 µM (inactive) | –
31 | c1ccc2c(c1)CCc1cc3cc4c(nc3nc1-2)-c1ccccc1CC4 | > 100 µM (inactive) | – | – | GI50 [2]: > 100 µM (inactive); GI50 [4]: > 100 µM (inactive); GI50 [5]: > 100 µM (inactive)
32 | C/C=C1/CN2CCC34c5ccccc5N(C)C23C2CC1C4(C(=O)OC)C(OC(C)=O)O2 (stereo not given) | – | > 100 µM (inactive) | > 100 µM (inactive) | –
